Measurements taken from patent publication US20220257592A1, “METHODS OF TREATING CANCER” (HOFFMANN-LA ROCHE INC., priority 2019, published 2022).

Test: Clinical trial safety, ALKA, STARTRK-1, STARTRK-2, STARTRK-NG (interim, N=355)
[1] = may be underestimated, 4.5% had no post-treatment liver function tests
[2] = patients with at least one post-baseline ECG assessment
[3] = worsening from baseline, NCI CTCAE v5.0

CN1CCN(c2ccc(C(=O)Nc3n[nH]c4ccc(Cc5cc(F)cc(F)c5)cc34)c(NC3CCOCC3)c2)CC1 [Entrectinib, N-[5-(3,5-difluorobenzyl)-1H-indazol-3-yl]-4-(4-methyl-piperazin-1-yl)-2-(tetrahydro-pyran-4-ylamino)-benzamide]
Cognitive impairment: mental status changes (human, in vivo): 2% | Discontinuation due to hyperuricemia (human, in vivo): No patients discontinued | Dose interruption due to anemia (human, in vivo): 3.1% | Dose interruption due to cognitive disorder (human, in vivo): 2% | Dose interruption due to diarrhea (human, in vivo): 2.8% | Dose interruption due to dizziness (human, in vivo): 2.5% | Dose interruption due to dyspnea (human, in vivo): 2.3% | Dose interruption due to fatigue (human, in vivo): 3.7% | Dose interruption due to increased blood creatinine (human, in vivo): 4% | Dose interruption due to nausea (human, in vivo): 2.3% | Dose interruption due to neutropenia (human, in vivo): 2% | Dose interruption due to pneumonia (human, in vivo): 2.3% | Dose interruption due to pyrexia (human, in vivo): 2.8% | Dose interruptions due to adverse reactions (human, in vivo): 46% | Dose reduction due to anemia (human, in vivo): 1.7% | Dose reduction due to dizziness (human, in vivo): 3.9% | Dose reduction due to fatigue (human, in vivo): 2.3% | Dose reduction due to increased blood creatinine (human, in vivo): 3.1% | Dose reduction due to increased weight (human, in vivo): 1.4% | Dose reductions due to adverse reactions (human, in vivo): 29% | Entrectinib discontinued due to increased AST or ALT (human, in vivo): 0.8% | Grade 3 cognitive adverse reactions (human, in vivo): 4.5% | Grade 3 mood disorders (human, in vivo): 0.6% | Grade 3 or 4 adverse reactions (human, in vivo): 60% | Grade 3 or 4 cognitive disorders (human, in vivo): 4.5% | Grade 3 or 4 diarrhea (human, in vivo): 2% | Grade 3 or 4 dyspnea (human, in vivo): 6% | Grade 3 or 4 fatigue/asthenia (human, in vivo): 5% | Grade 3 or 4 hypotension (human, in vivo): 2.8% | Grade 3 or 4 hypoxia (human, in vivo): 3.4% | Grade 3 or 4 increased weight (human, in vivo): 7% | Grade 3 or 4 lung infection (human, in vivo): 5% | Grade 3 or 4 pleural effusion (human, in vivo): 3.1% | Grade 3 or 4 pulmonary embolism (human, in vivo): 3.4% | Grade 3 or 4 syncope (human, in vivo): 2.5% | Grade 3 or 4 urinary tract infection (human, in vivo): 2.5% | Grade 3 sleep disturbances (human, in vivo): 0.6% | Hyperuricemia resolved following urate-lowering medication without interruption or dose reduction (human, in vivo): 73% | Incidence of CNS adverse reactions in patients with and without CNS metastases (human, in vivo): similar | Mood disorders: agitation (human, in vivo): 2% | Mood disorders: anxiety (human, in vivo): 4.8% | Mood disorders: depression (human, in vivo): 2.8% | Most common adverse reactions (≥20%) (human, in vivo): fatigue, constipation, dysgeusia, edema, dizziness, diarrhea, nausea, dysesthesia, dyspnea, myalgia, cognitive impairment, increased weight, cough, vomiting, pyrexia, arthralgia and vision disorders | Myocarditis in the absence of CHF (human, in vivo): 0.3% | Permanent discontinuation due to an adverse reaction (human, in vivo): 9% | Permanent discontinuation due to cardio-respiratory arrest (human, in vivo): < 1% | Permanent discontinuation due to dyspnea (human, in vivo): < 1% | Permanent discontinuation due to fatigue (human, in vivo): < 1% | Permanent discontinuation due to pneumonia (human, in vivo): < 1% | Serious adverse reaction: dyspnea (human, in vivo): 3.7% | Serious adverse reaction: pleural effusion (human, in vivo): 3.4% | Serious adverse reaction: pneumonia (human, in vivo): 3.9% | Serious adverse reaction: pulmonary embolism (human, in vivo): 2.3% | Serious adverse reaction: pyrexia (human, in vivo): 2% | Serious adverse reaction: respiratory failure (human, in vivo): 2% | Serious adverse reaction: sepsis (human, in vivo): 2.5% | Serious adverse reactions (human, in vivo): 39% | Sleep disturbances: hypersomnia (human, in vivo): 1.1% | Sleep disturbances: insomnia (human, in vivo): 7% | Sleep disturbances: sleep disorder (human, in vivo): 0.3% | Sleep disturbances: somnolence (human, in vivo): 7% | Vision changes, Grade 1 (human, in vivo): 82% | Vision changes, Grade 2 (human, in vivo): 14% | Vision changes, Grade 3 (human, in vivo): 0.8% | Vision disorders: blurred vision (human, in vivo): 8.7% | Vision disorders: cataract (human, in vivo): 1.1% | Vision disorders: diplopia (human, in vivo): 3.1% | Vision disorders: photophobia (human, in vivo): 5.1% | Vision disorders: photopsia (human, in vivo): 1.3% | Vision disorders: visual impairment (human, in vivo): 2% | Vision disorders: vitreous floaters (human, in vivo): 1.1% | Grade 4 hyperuricemia (including one patient who died due to tumor lysis syndrome): 1.7% | Grade 3-4 increased ALT [1]: 2.8% | Grade 3-4 increased AST [1]: 2.5% | Cognitive impairment symptoms occurred within 3 months of starting entrectinib (of the 96 patients with cognitive impairment): 77% | QTcF interval >500 ms [2]: 0.6% | QTcF interval prolongation of >60 ms after starting entrectinib [2]: 3.1% | Mood disorders, median time to onset (range: 1 day to 9 months): 1 month | Increased ALT, median time to onset (range: 1 day to 9.2 months): 2 weeks | Increased AST, median time to onset (range: 1 day to 29.5 months): 2 weeks | Completed suicide (reported 11 days after treatment had ended): One | Grade 4 myocarditis after one dose of entrectinib (resolved after discontinuation and high-dose corticosteroids): One | Increased AST or ALT leading to dose reductions (second value of 'respectively'): 0.8% | Laboratory: Anemia, All Grades (worsening from baseline): 67% | Laboratory: Anemia, Grade 3 or 4 (worsening from baseline): 9% | Laboratory: Hyperkalemia, All Grades (worsening from baseline): 25% | Laboratory: Hyperkalemia, Grade 3 or 4 (worsening from baseline): 1.5% | Laboratory: Hypernatremia, All Grades (worsening from baseline): 35% | Laboratory: Hypernatremia, Grade 3 or 4 (worsening from baseline): 0.9% | Laboratory: Hyperuricemia, All Grades (worsening from baseline): 52% | Laboratory: Hyperuricemia, Grade 3 or 4 (worsening from baseline): 10% | Laboratory: Hypoalbuminemia, All Grades (worsening from baseline): 28% | Laboratory: Hypoalbuminemia, Grade 3 or 4 (worsening from baseline): 2.9% | Laboratory: Hypocalcemia, All Grades (worsening from baseline): 34% | Laboratory: Hypocalcemia, Grade 3 or 4 (worsening from baseline): 1.8% | Laboratory: Hypophosphatemia, All Grades (worsening from baseline): 30% | Laboratory: Hypophosphatemia, Grade 3 or 4 (worsening from baseline): 7% | Laboratory: Increased ALT, All Grades (worsening from baseline): 38% | Laboratory: Increased ALT, Grade 3 or 4 (worsening from baseline): 2.9% | Laboratory: Increased AST, All Grades (worsening from baseline): 44% | Laboratory: Increased AST, Grade 3 or 4 (worsening from baseline): 2.7% | Laboratory: Increased alkaline phosphatase, All Grades (worsening from baseline): 25% | Laboratory: Increased alkaline phosphatase, Grade 3 or 4 (worsening from baseline): 0.9% | Laboratory: Increased amylase, All Grades (worsening from baseline): 26% | Laboratory: Increased amylase, Grade 3 or 4 (worsening from baseline): 5.4% | Laboratory: Increased lipase, All Grades (worsening from baseline): 28% | Laboratory: Increased lipase, Grade 3 or 4 (worsening from baseline): 10% | Laboratory: Lymphopenia, All Grades (worsening from baseline): 40% | Laboratory: Lymphopenia, Grade 3 or 4 (worsening from baseline): 12% | Laboratory: Neutropenia, All Grades (worsening from baseline): 28% | Laboratory: Neutropenia, Grade 3 or 4 (worsening from baseline): 7% | Laboratory: Hyperglycemia, Grade 3 or 4 [3]: 3.8% | Laboratory: Increased creatinine, All Grades [3]: 73% | Laboratory: Increased creatinine, Grade 3 or 4 [3]: 2.1%
